Paper PMC5412352 (International Journal of Molecular Sciences, 2017)
Read-outs that look alike come from different tables or passages of the source.

Assays:
[1] = target: T1, hGhrR (COS7 cells stably transfected with hGhrR) (Homo sapiens, UniProt Q92847); experiment: Inositol phosphate accumulation assay, antagonistic potency with 10^-8 M ghrelin; type: cell-based; conditions: for Emax: COS-7, read-out: Emax (antagonistic efficacy)
T1 construct: expressed in transfected cells
Description: Antagonistic properties at the hGhrR
antagonistic potency in an inositol phosphate accumulation assay (Table S1). The receptor was
Table S1. Inositol phosphate accumulation assay to determine antagonistic potencies of candidate
Compounds were analyzed by inositol phosphate accumulation in COS7 cells stably

rat σ2 receptor = target: T2, rat σ2 receptor (Rattus norvegicus, UniProt Q5U3Y7); experiment: Selectivity radioligand displacement, [3H]DTG, rat liver homogenate; type: binding; conditions: [3H]DTG + 1 µM dextrallorphan
T2 construct: rat σ2 receptor = rat liver homogenate; from tissue; host or cells: rat liver homogenate
T2 sequence (Q5U3Y7 1-176): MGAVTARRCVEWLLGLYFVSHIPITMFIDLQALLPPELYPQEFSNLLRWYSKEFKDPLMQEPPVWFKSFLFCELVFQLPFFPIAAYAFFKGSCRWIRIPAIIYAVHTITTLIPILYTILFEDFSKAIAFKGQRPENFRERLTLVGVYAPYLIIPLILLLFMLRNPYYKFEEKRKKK
Description: […]
(§1) The incubations were terminated by rapid filtration via glass-fiber filters presoaked in PEI (0.3%, 60 min at rt), and the filter-bound radioactivity was counted by liquid scintillation counting (Tricarb, PerkinElmer).

[2] = target: hGhrR (COS7 cells stably expressing hGhrR-eYFP) (Homo sapiens, UniProt Q92847); experiment: cell-based; conditions: for Emax: COS-7, mean ± SEM, refers to ghrelin Emax as 100%, 0% = constitutive receptor activity
[3] = target: human GhrR (hGhrR-eYFP, HEK293 cell membranes) (Homo sapiens, UniProt Q92847); experiment: Competitive radioligand binding assay with [125I-His9]ghrelin at hGhrR membranes; conditions: for fold higher IC50 than (S)-9: hGhrR binding IC50 relative to starting compound (S)-9
[4] = HPLC-based chromatographic hydrophobicity index on immobilized artificial membranes (CHI IAM); type: physicochemical; conditions: IAM PC DD2 column, acetonitrile / 50 mM ammonium acetate gradient
Source text: Physicochemical properties of a drug such as lipophilicity and non-specific binding to membranes and plasma proteins are crucial parameters of a potential radiotracer, in particular if it is supposed to pass the blood brain barrier (BBB). The lipophilicity (logD7.4) was estimated using the commercially available ACD/Labs-12.5 software and the non-specific binding was estimated by the high-performance liquid chromatography (HPLC)-based hydrophobicity index at immobilized artificial membranes (CHI IAM) for seven fluorine substituted candidate molecules and (S)-13 without fluorine (Table 3).
The chromatographic hydrophobicity index on immobilized artificial membranes (CHI IAM) was experimentally determined by a HPLC method described by Valko and co-workers using a IAM PC DD2 column (100 × 4.6 mm, […], Regis Technologies, IL, USA), a gradient of acetonitrile, and 50 mM ammonium acetate as eluent and acetanilide, acetophenone, 1,4-dinitrobenzene, anisole propiophenone, valerophenone, and octanophenone as references.

human α3β4 nAChR = target: T3, human α3β4 nAChR (Homo sapiens, UniProt P30926+P32297); experiment: Selectivity radioligand displacement, [3H]epibatidine, transfected HEK cells; type: binding; conditions: read-out: Ki at α3β4 nAChRs
T3 construct: expressed in transfected cells; host or cells: HEK cells (by courtesy of Dominik Feuerbach, Novartis), homogenate
Description: […]
as §1

[5] = 5 min pre-stimulation with compound, then 10^-8 M ghrelin, read-out: IC50 (antagonistic potency)
[6] = EC50, 2 h stimulation in absence of ghrelin, COS7-hGhrR
[7] = pEC50, mean ± SEM, 2 h stimulation in absence of ghrelin

T1 sequence (Q92847 whole entry): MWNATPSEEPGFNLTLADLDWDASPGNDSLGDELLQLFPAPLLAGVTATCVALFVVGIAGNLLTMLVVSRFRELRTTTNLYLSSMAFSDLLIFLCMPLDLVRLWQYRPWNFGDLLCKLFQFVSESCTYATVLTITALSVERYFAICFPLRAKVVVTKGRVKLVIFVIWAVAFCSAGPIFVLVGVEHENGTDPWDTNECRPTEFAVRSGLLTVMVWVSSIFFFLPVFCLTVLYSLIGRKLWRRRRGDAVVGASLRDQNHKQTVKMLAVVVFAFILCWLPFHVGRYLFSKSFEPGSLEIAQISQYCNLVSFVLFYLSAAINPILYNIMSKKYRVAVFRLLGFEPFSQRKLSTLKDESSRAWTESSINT
Chain of hGhrR (COS7 cells stably expressing hGhrR-eYFP) (Q92847 whole entry): as above
Chain of human GhrR (hGhrR-eYFP, HEK293 cell membranes) (Q92847 whole entry): as above
T3 sequence (P32297 32-505): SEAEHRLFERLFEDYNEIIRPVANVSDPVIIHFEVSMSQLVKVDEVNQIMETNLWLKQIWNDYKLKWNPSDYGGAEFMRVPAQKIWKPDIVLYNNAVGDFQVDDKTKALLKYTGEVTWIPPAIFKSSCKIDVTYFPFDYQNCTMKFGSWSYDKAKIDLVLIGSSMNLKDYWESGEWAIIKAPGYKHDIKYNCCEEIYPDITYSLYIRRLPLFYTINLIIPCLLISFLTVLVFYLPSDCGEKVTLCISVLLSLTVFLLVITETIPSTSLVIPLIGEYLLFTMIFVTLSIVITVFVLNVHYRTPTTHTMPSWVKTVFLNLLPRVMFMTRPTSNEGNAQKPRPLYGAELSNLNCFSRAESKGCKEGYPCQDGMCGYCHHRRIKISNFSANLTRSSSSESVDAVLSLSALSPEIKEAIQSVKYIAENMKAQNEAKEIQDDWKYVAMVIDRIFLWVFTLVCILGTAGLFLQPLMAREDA
T3 sequence (P30926 22-498): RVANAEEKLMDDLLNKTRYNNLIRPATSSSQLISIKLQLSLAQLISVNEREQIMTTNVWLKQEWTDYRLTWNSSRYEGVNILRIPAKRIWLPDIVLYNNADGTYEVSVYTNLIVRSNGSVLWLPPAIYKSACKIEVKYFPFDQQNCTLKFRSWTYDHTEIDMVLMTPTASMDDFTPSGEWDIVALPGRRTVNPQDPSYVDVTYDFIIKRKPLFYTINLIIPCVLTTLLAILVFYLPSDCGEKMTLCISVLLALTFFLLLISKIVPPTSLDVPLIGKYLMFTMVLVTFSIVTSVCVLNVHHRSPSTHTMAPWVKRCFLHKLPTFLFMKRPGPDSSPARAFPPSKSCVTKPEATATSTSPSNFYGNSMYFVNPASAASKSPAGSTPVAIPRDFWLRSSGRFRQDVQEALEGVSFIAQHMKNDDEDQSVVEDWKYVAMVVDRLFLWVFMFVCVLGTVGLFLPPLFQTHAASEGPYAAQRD

Row | Structure (SMILES) | IC50 [1, 5] [µM] | Emax [1] [%] | Ki (rat σ2 receptor) [µM] | Emax [2] [%] | EC50 [2, 6] [µM] | EC50 [2, 7] [µM] | IC50 [3] [µM] | CHI IAM [4] | fold higher IC50 than (S)-9 [3] | Ki (human α3β4 nAChR) [µM] | IC50 ([1]; mean ± SEM, with 10^-8 M ghrelin, read-out: pIC50 (antagonistic potency) (converted)) [µM]
1 | Cc1nc2ccc(Oc3ccc(Br)cc3F)nc2c(=O)n1C[C@@H]1CCCN(C(C)C)C1 [(R)-9, (R)-6-(4-Bromo-2-fluorophenoxy)-3-((1-isopropylpiperidin-3-yl)methyl)-2-methylpyrido[3,2-d]pyrimidin-4(3H)-one] | 0.0175 | 45 ± 5 | 0.053 ± 0.007 | ~60 | 0.0006 | 0.00055 | 0.00389 | 42.8 |  |  | 
2 | Cc1nc2ccc(Oc3ccc(Br)cc3F)nc2c(=O)n1C[C@H]1CCCN(CCF)C1 [(S)-10, (S)-6-(4-Bromo-2-fluorophenoxy)-3-((1-(2-fluoroethyl)piperidin-3-yl)methyl)-2-methylpyrido[3,2-d]pyrimidin-4(3H)-one] | 0.345 | 22 ± 4 |  | ~60 |  | 0.00158 | 0.069 | 39.6 | about 30 fold |  | 
3 | Cc1nc2ccc(Oc3ccc(Br)cc3F)nc2c(=O)n1C[C@H]1CCCN(CCCF)C1 [(S)-11, (S)-6-(4-Bromo-2-fluorophenoxy)-3-((1-(3-fluoropropyl)piperidin-3-yl)methyl)-2-methylpyrido[3,2-d]pyrimidin-4(3H)-one] | 0.349 | 56 ± 10 |  | ~60 |  | 0.00288 | 0.066 | 42.2 | about 30 fold | 0.027 ± 0.008 | 
4 | Cc1nc2ccc(Oc3ccc(Br)cc3F)nc2c(=O)n1C[C@H]1CCCN(CCCCF)C1 [(S)-12, (S)-6-(4-Bromo-2-fluorophenoxy)-3-((1-(4-fluorobutyl)piperidin-3-yl)methyl)-2-methylpyrido[3,2-d]pyrimidin-4(3H)-one] |  |  |  |  |  |  | 0.574 | 43.3 |  | 0.064 ± 0.014 | 
5 | Cc1nc2ccc(Oc3ccc(Br)cc3F)nc2c(=O)n1C[C@H]1CCCN(C(C)CF)C1 (stereo partly drawn) [(S)-13, 6-(4-Bromo-2-fluorophenoxy)-3-(((3S)-1-(1-fluoropropan-2-yl)piperidin-3-yl)methyl)-2-methylpyrido[3,2-d]pyrimidin-4(3H)-one] | 0.207 | 31 ± 5 |  | ~60 | 0.0014 | 0.00135 | 0.0126 | 42.8 |  |  | 0.204
6 | Cc1nc2ccc(Oc3ccc(Br)cc3)nc2c(=O)n1C[C@H]1CCCN(C(C)C)C1 [(S)-14] | 0.123 | 57 ± 6 |  | 42 ± 4 |  | 0.00214 | 0.0123 | 42.8 |  |  | 
7 | CC(C)N1CCC[C@H](Cn2cnc3ccc(Oc4ccc(Br)cc4F)nc3c2=O)C1 [(S)-16, (S)-6-(4-Bromo-2-fluorophenoxy)-3-((1-isopropylpiperidin-3-yl)methyl)pyrido[3,2-d]pyrimidin-4(3H)-one] | 0.0287 | 65 ± 5 |  | 40 ± 4 |  | 0.00102 | 0.00269 | 42.3 |  |  | 
8 | CC(C)N1CCC[C@H](Cn2c(F)nc3ccc(Oc4ccc(Br)cc4F)nc3c2=O)C1 [(S)-17, (S)-6-(4-Bromo-2-fluorophenoxy)-2-fluoro-3-((1-isopropylpiperidin-3-yl)methyl)pyrido[3,2-d]pyrimidin-4(3H)-one] |  |  |  |  |  |  | 0.151 |  |  |  | 
